Measured values: patent US20260262643A1, “HERBICIDAL BENZOXAZINES” (FMC CORPORATION, priority 2022, published 2026)

Experiments:
kochia [1] = experiment: Test C preemergence; assay type: in vivo, Bassia scoparia; conditions: preemergence, 0 to 100 scale (0 no effect, 100 complete control)
How it was run: (§1)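 Soil-applied (pre) and foliar (post, 1–2 leaf, 2–10 cm) sprays; surfactant-containing non-phytotoxic solvent vehicle; loam/sand substrate. Readout: visual % control at 10 d, greenhouse, versus untreated.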

ragweed [2] = experiment: Test C preemergence; assay type: in vivo, Ambrosia artemisiifolia; conditions: preemergence, 0 to 100 scale (0 no effect, 100 complete control)
How it was run: as §1

ducksalad = experiment: Test D flooded paddy test; assay type: in vivo, Heteranthera limosa; conditions: 250 g ai/ha, applied to paddy water, visual rating after 13 to 14 days, scale 0 to 100 (0 no effect, 100 complete control)
How it was run: (§2)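 Rating scale 0–100 (0 no effect, 100 complete control), visual, versus controls. Readout at 13–14 days after in-water application to 2-leaf plants in pots flooded 3 cm deep.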

ryegrass, Italian [3] = experiment: Test C postemergence; assay type: in vivo, Lolium multiflorum; conditions: 10 days, 0 to 100 scale (0 no effect, 100 complete control)
How it was run: as §1

galium = experiment: Test C postemergence; assay type: in vivo, Galium aparine; conditions: 10 days, 0 to 100 scale (0 no effect, 100 complete control)
How it was run: as §1

rice = experiment: Test D flooded paddy test; assay type: in vivo, Oryza sativa; conditions: 250 g ai/ha, applied to paddy water, visual rating after 13 to 14 days, scale 0 to 100 (0 no effect, 100 complete control)
How it was run: as §2

wheat [4] = experiment: Test C postemergence; assay type: in vivo, Triticum aestivum; conditions: 10 days, 0 to 100 scale (0 no effect, 100 complete control)
How it was run: as §1

green foxtail [5] = experiment: Test C preemergence; assay type: in vivo, Setaria viridis; conditions: preemergence, 0 to 100 scale (0 no effect, 100 complete control)
How it was run: as §1

corn [6] = experiment: Test C preemergence; assay type: in vivo, Zea mays; conditions: preemergence, 0 to 100 scale (0 no effect, 100 complete control)
How it was run: as §1

soybean [7] = experiment: Test C preemergence; assay type: in vivo, Glycine max; conditions: preemergence, 0 to 100 scale (0 no effect, 100 complete control)
How it was run: as §1

oat, wild [8] = experiment: Test C preemergence; assay type: in vivo, Avena fatua; conditions: preemergence, 0 to 100 scale (0 no effect, 100 complete control)
How it was run: as §1

kochia [9] = experiment: Test C postemergence; assay type: in vivo, Bassia scoparia; conditions: 10 days, 0 to 100 scale (0 no effect, 100 complete control)
How it was run: as §1

pigweed, palmer [10] = experiment: Test C preemergence; assay type: in vivo, Amaranthus palmeri; conditions: preemergence, 0 to 100 scale (0 no effect, 100 complete control)
How it was run: as §1

horseweed = experiment: Test C postemergence; assay type: in vivo, Erigeron canadensis; conditions: 10 days, 0 to 100 scale (0 no effect, 100 complete control)
How it was run: as §1

barnyardgrass [11] = experiment: Test D flooded paddy test; assay type: in vivo, Echinochloa crus-galli; conditions: 250 g ai/ha, applied to paddy water, visual rating after 13 to 14 days, scale 0 to 100 (0 no effect, 100 complete control)
How it was run: as §2

oat, wild [12] = experiment: Test C postemergence; assay type: in vivo, Avena fatua; conditions: 10 days, 0 to 100 scale (0 no effect, 100 complete control)
How it was run: as §1

blackgrass [13] = experiment: Test C preemergence; assay type: in vivo, Alopecurus myosuroides; conditions: preemergence, 0 to 100 scale (0 no effect, 100 complete control)
How it was run: as §1

sedge, umbrella = experiment: Test D flooded paddy test; assay type: in vivo, Cyperus difformis; conditions: 250 g ai/ha, applied to paddy water, visual rating after 13 to 14 days, scale 0 to 100 (0 no effect, 100 complete control)
How it was run: as §2

barnyardgrass [14] = experiment: Test C preemergence; assay type: in vivo, Echinochloa crusgalli; conditions: preemergence, 0 to 100 scale (0 no effect, 100 complete control)
How it was run: as §1

green foxtail [15] = experiment: Test C postemergence; assay type: in vivo, Setaria viridis; conditions: 10 days, 0 to 100 scale (0 no effect, 100 complete control)
How it was run: as §1

ragweed [16] = experiment: Test C postemergence; assay type: in vivo, Ambrosia artemisiifolia; conditions: 10 days, 0 to 100 scale (0 no effect, 100 complete control)
How it was run: as §1

wheat [17] = experiment: Test C preemergence; assay type: in vivo, Triticum aestivum; conditions: preemergence, 0 to 100 scale (0 no effect, 100 complete control)
How it was run: as §1

blackgrass [18] = experiment: Test C postemergence; assay type: in vivo, Alopecurus myosuroides; conditions: 10 days, 0 to 100 scale (0 no effect, 100 complete control)
How it was run: as §1

pigweed, palmer [19] = experiment: Test C postemergence; assay type: in vivo, Amaranthus palmeri; conditions: 10 days, 0 to 100 scale (0 no effect, 100 complete control)
How it was run: as §1

corn [20] = experiment: Test C postemergence; assay type: in vivo, Zea mays; conditions: 10 days, 0 to 100 scale (0 no effect, 100 complete control)
How it was run: as §1

ryegrass, Italian [21] = experiment: Test C preemergence; assay type: in vivo, Lolium multiflorum; conditions: preemergence, 0 to 100 scale (0 no effect, 100 complete control)
How it was run: as §1

barnyardgrass [22] = experiment: Test C postemergence; assay type: in vivo, Echinochloa crusgalli; conditions: 10 days, 0 to 100 scale (0 no effect, 100 complete control)
How it was run: as §1

soybean [23] = experiment: Test C postemergence; assay type: in vivo, Glycine max; conditions: 10 days, 0 to 100 scale (0 no effect, 100 complete control)
How it was run: as §1

COC[C@H]1CN(C(=O)c2cc(-n3cnc(C(C)C)n3)ccc2OC)c2cccc(Cl)c2O1 [Compound 314]
0: Corn plant response rating (corn [6]; 500 g ai/ha) | Corn plant response rating (corn [6]; Test C, 125 g ai/ha)
85: Plant response rating, Ducksalad (Flood) (ducksalad)
70: Ragweed plant response rating (ragweed [2]; 500 g ai/ha) | Blackgrass plant response rating (blackgrass [13]; 500 g ai/ha) | Barnyardgrass plant response rating (barnyardgrass [14]; Test C, 125 g ai/ha)
40: Soybean plant response rating (soybean [7]; Test C, 125 g ai/ha) | Plant response rating, Oat, Wild (oat, wild [12]; 500 g ai/ha, postemergence) | Plant response rating, Oat, Wild (oat, wild [12]; Postemergence, 125 g ai/ha) | Wheat plant response rating (wheat [17]; 500 g ai/ha)
60: Oat, Wild plant response rating (oat, wild [8]; Test C, 125 g ai/ha) | Plant response rating, Foxtail, Green (green foxtail [15]; Postemergence, 125 g ai/ha) | Plant response rating, Pigweed, Palmer (pigweed, palmer [19]; Postemergence, 125 g ai/ha) | Plant response rating, Barnyardgrass (barnyardgrass [22]; 500 g ai/ha, postemergence)
30: Plant response rating, Wheat (wheat [4]; 500 g ai/ha, postemergence) | Plant response rating, Barnyardgrass (barnyardgrass [22]; Postemergence, 125 g ai/ha)
50: Ragweed plant response rating (ragweed [2]; Test C, 125 g ai/ha)
90: Kochia plant response rating (kochia [1]; Test C, 125 g ai/ha) | Plant response rating, Ryegrass, Italian (ryegrass, Italian [3]; 500 g ai/ha, postemergence) | Soybean plant response rating (soybean [7]; 500 g ai/ha) | Plant response rating, Kochia (kochia [9]; 500 g ai/ha, postemergence) | Plant response rating, Kochia (kochia [9]; Postemergence, 125 g ai/ha) | Plant response rating, Horseweed (horseweed; 500 g ai/ha, postemergence) | Plant response rating, Foxtail, Green (green foxtail [15]; 500 g ai/ha, postemergence) | Plant response rating, Ragweed (ragweed [16]; 500 g ai/ha, postemergence) | Plant response rating, Pigweed, Palmer (pigweed, palmer [19]; 500 g ai/ha, postemergence) | Plant response rating, Corn (corn [20]; 500 g ai/ha, postemergence)
100: Kochia plant response rating (kochia [1]; 500 g ai/ha) | Plant response rating, Galium (galium; 500 g ai/ha, postemergence) | Plant response rating, Galium (galium; Postemergence, 125 g ai/ha) | Foxtail, Green plant response rating (green foxtail [5]; 500 g ai/ha) | Foxtail, Green plant response rating (green foxtail [5]; Test C, 125 g ai/ha) | Pigweed, Palmer plant response rating (pigweed, palmer [10]; 500 g ai/ha) | Pigweed, Palmer plant response rating (pigweed, palmer [10]; Test C, 125 g ai/ha) | Plant response rating, Horseweed (horseweed; Postemergence, 125 g ai/ha) | Plant response rating, Sedge, Umbrella (Flood) (sedge, umbrella) | Barnyardgrass plant response rating (barnyardgrass [14]; 500 g ai/ha) | Plant response rating, Blackgrass (blackgrass [18]; 500 g ai/ha, postemergence) | Ryegrass, Italian plant response rating (ryegrass, Italian [21]; 500 g ai/ha) | Ryegrass, Italian plant response rating (ryegrass, Italian [21]; Test C, 125 g ai/ha) | Plant response rating, Soybean (soybean [23]; 500 g ai/ha, postemergence) | Plant response rating, Soybean (soybean [23]; Postemergence, 125 g ai/ha)
80: Plant response rating, Ryegrass, Italian (ryegrass, Italian [3]; Postemergence, 125 g ai/ha) | Oat, Wild plant response rating (oat, wild [8]; 500 g ai/ha) | Plant response rating, Ragweed (ragweed [16]; Postemergence, 125 g ai/ha) | Plant response rating, Blackgrass (blackgrass [18]; Postemergence, 125 g ai/ha) | Plant response rating, Corn (corn [20]; Postemergence, 125 g ai/ha)
15: Plant response rating, Rice (Flood) (rice) | Plant response rating, Barnyardgrass (Flood) (barnyardgrass [11])
20: Plant response rating, Wheat (wheat [4]; Postemergence, 125 g ai/ha) | Blackgrass plant response rating (blackgrass [13]; Test C, 125 g ai/ha) | Wheat plant response rating (wheat [17]; Test C, 125 g ai/ha)

COC(=O)c1ncn(-c2ccc(C)c(C(=O)N3C[C@H](C)Oc4c(Cl)cccc43)c2)n1 [Compound 315]
40: Plant response rating, Kochia (kochia [9]; Postemergence, 125 g ai/ha) | Plant response rating, Corn (corn [20]; 500 g ai/ha, postemergence) | Ryegrass, Italian plant response rating (ryegrass, Italian [21]; Test C, 125 g ai/ha)
30: Ragweed plant response rating (ragweed [2]; 500 g ai/ha) | Foxtail, Green plant response rating (green foxtail [5]; Test C, 125 g ai/ha) | Plant response rating, Horseweed (horseweed; 500 g ai/ha, postemergence) | Wheat plant response rating (wheat [17]; 500 g ai/ha) | Plant response rating, Corn (corn [20]; Postemergence, 125 g ai/ha)
100: Pigweed, Palmer plant response rating (pigweed, palmer [10]; 500 g ai/ha) | Plant response rating, Pigweed, Palmer (pigweed, palmer [19]; 500 g ai/ha, postemergence) | Plant response rating, Soybean (soybean [23]; 500 g ai/ha, postemergence)
0: Kochia plant response rating (kochia [1]; 500 g ai/ha) | Kochia plant response rating (kochia [1]; Test C, 125 g ai/ha) | Ragweed plant response rating (ragweed [2]; Test C, 125 g ai/ha) | Corn plant response rating (corn [6]; 500 g ai/ha) | Corn plant response rating (corn [6]; Test C, 125 g ai/ha) | Soybean plant response rating (soybean [7]; 500 g ai/ha) | Soybean plant response rating (soybean [7]; Test C, 125 g ai/ha) | Oat, Wild plant response rating (oat, wild [8]; Test C, 125 g ai/ha) | Plant response rating, Horseweed (horseweed; Postemergence, 125 g ai/ha) | Blackgrass plant response rating (blackgrass [13]; Test C, 125 g ai/ha) | Barnyardgrass plant response rating (barnyardgrass [14]; Test C, 125 g ai/ha) | Wheat plant response rating (wheat [17]; Test C, 125 g ai/ha)
80: Plant response rating, Ryegrass, Italian (ryegrass, Italian [3]; 500 g ai/ha, postemergence) | Plant response rating, Wheat (wheat [4]; Postemergence, 125 g ai/ha) | Plant response rating, Foxtail, Green (green foxtail [15]; Postemergence, 125 g ai/ha) | Plant response rating, Pigweed, Palmer (pigweed, palmer [19]; Postemergence, 125 g ai/ha) | Plant response rating, Barnyardgrass (barnyardgrass [22]; 500 g ai/ha, postemergence)
15: Plant response rating, Barnyardgrass (Flood) (barnyardgrass [11])
60: Plant response rating, Ryegrass, Italian (ryegrass, Italian [3]; Postemergence, 125 g ai/ha) | Oat, Wild plant response rating (oat, wild [8]; 500 g ai/ha) | Plant response rating, Sedge, Umbrella (Flood) (sedge, umbrella) | Plant response rating, Barnyardgrass (barnyardgrass [22]; Postemergence, 125 g ai/ha)
70: Plant response rating, Galium (galium; 500 g ai/ha, postemergence) | Plant response rating, Galium (galium; Postemergence, 125 g ai/ha) | Plant response rating, Ragweed (ragweed [16]; 500 g ai/ha, postemergence) | Plant response rating, Ragweed (ragweed [16]; Postemergence, 125 g ai/ha) | Plant response rating, Blackgrass (blackgrass [18]; Postemergence, 125 g ai/ha) | Plant response rating, Soybean (soybean [23]; Postemergence, 125 g ai/ha)
90: Plant response rating, Wheat (wheat [4]; 500 g ai/ha, postemergence) | Foxtail, Green plant response rating (green foxtail [5]; 500 g ai/ha) | Plant response rating, Oat, Wild (oat, wild [12]; 500 g ai/ha, postemergence) | Barnyardgrass plant response rating (barnyardgrass [14]; 500 g ai/ha) | Plant response rating, Foxtail, Green (green foxtail [15]; 500 g ai/ha, postemergence) | Plant response rating, Blackgrass (blackgrass [18]; 500 g ai/ha, postemergence) | Ryegrass, Italian plant response rating (ryegrass, Italian [21]; 500 g ai/ha)
85: Plant response rating, Ducksalad (Flood) (ducksalad)
50: Plant response rating, Kochia (kochia [9]; 500 g ai/ha, postemergence) | Plant response rating, Oat, Wild (oat, wild [12]; Postemergence, 125 g ai/ha) | Blackgrass plant response rating (blackgrass [13]; 500 g ai/ha)
10: Plant response rating, Rice (Flood) (rice) | Pigweed, Palmer plant response rating (pigweed, palmer [10]; Test C, 125 g ai/ha)
